Laboratory results as given in patent US10681909B2, “Herbicidal triazoles” (FMC Corporation, priority 2014, dated 2020).

Legend:
morningglory = assay: Test C postemergence; type: in vivo, Ipomoea coccinea
Procedure, shortened: (§1)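 Preemergence: seeds sown in loam soil–sand blend and treated with test chemicals formulated in a non-phytotoxic solvent mixture containing a surfactant. Postemergence: plants grown in peat moss/vermiculite-based medium and sprayed with the same formulation at 2 to 18 cm height (1- to 4-leaf stage).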

ducksalad = assay: Test B flooded paddy test; type: in vivo, Heteranthera limosa; settings: 250 g ai/ha, applied to paddy water at 2-leaf stage, visual rating after 13 to 15 d, scale 0 (no effect) to 100 (complete control)
Procedure, shortened: (§2)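 Pots were flooded to 3 cm above the soil at treatment, and compounds were applied directly into the paddy water. That depth was held throughout. After 13 to 15 d in a greenhouse, plants were rated visually against untreated controls.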

soybean = assay: Test C postemergence; type: in vivo, Glycine max
Procedure, shortened: as §1

barnyardgrass = assay: Test A postemergence; type: in vivo, Echinochloa crus-galli; settings: 0 to 100 scale (0 no effect, 100 complete control), approx. 10 d
Procedure, shortened: (§3)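 Test chemicals, formulated in a surfactant-containing non-phytotoxic solvent mixture, are applied either as a directed soil spray to newly planted seeds or as a postemergence application to plants at the one- to two-leaf stage (2–10 cm). All plants grow in a loam soil and sand blend.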

wheat (winter wheat) = assay: Test C postemergence; type: in vivo, Triticum aestivum
Procedure, shortened: as §1

nutsedge, yellow = assay: Test C postemergence; type: in vivo, Cyperus esculentus
Procedure, shortened: as §1

oat, wild = assay: Test C postemergence; type: in vivo, Avena fatua
Procedure, shortened: as §1

rice = assay: Test B flooded paddy test; type: in vivo, Oryza sativa; settings: 250 g ai/ha, applied to paddy water at 2-leaf stage, visual rating after 13 to 15 d, scale 0 (no effect) to 100 (complete control)
Procedure, shortened: as §2

sedge, umbrella = assay: Test B flooded paddy test; type: in vivo, Cyperus difformis; settings: 250 g ai/ha, applied to paddy water at 2-leaf stage, visual rating after 13 to 15 d, scale 0 (no effect) to 100 (complete control)
Procedure, shortened: as §2

chickweed = assay: Test C postemergence; type: in vivo, Stellaria media
Procedure, shortened: as §1

corn = assay: Test A postemergence; type: in vivo, Zea mays; settings: 0 to 100 scale (0 no effect, 100 complete control), approx. 10 d
Procedure, shortened: as §3

ryegrass, Italian = assay: Test C postemergence; type: in vivo, Lolium multiflorum
Procedure, shortened: as §1

pigweed = assay: Test A preemergence; type: in vivo, Amaranthus retroflexus; settings: 0 to 100 scale (0 no effect, 100 complete control)
Procedure, shortened: as §3

foxtail, giant = assay: Test A preemergence; type: in vivo, Setaria faberii; settings: 0 to 100 scale (0 no effect, 100 complete control)
Procedure, shortened: as §3

SMILES | Plant response rating (scale of 0 to 100 where 0 is no effect and 100 is complete control) (morningglory; 31 g ai/ha) | Plant response rating (scale of 0 to 100 where 0 is no effect and 100 is complete control) (morningglory; 62 g ai/ha) | Plant response rating (scale of 0 to 100 where 0 is no effect and 100 is complete control) (morningglory; 125 g ai/ha) | Plant response rating, Ducksalad, Flood (ducksalad) | Plant response rating (scale of 0 to 100 where 0 is no effect and 100 is complete control) (soybean; 31 g ai/ha) | Plant response rating (scale of 0 to 100 where 0 is no effect and 100 is complete control) (soybean; 62 g ai/ha) | Plant response rating (scale of 0 to 100 where 0 is no effect and 100 is complete control) (soybean; 125 g ai/ha) | Plant response rating, Barnyardgrass (barnyardgrass; 125 g ai/ha) | Plant response rating (scale of 0 to 100 where 0 is no effect and 100 is complete control) (wheat (winter wheat); 31 g ai/ha) | Plant response rating (scale of 0 to 100 where 0 is no effect and 100 is complete control) (wheat (winter wheat); 62 g ai/ha) | Plant response rating (scale of 0 to 100 where 0 is no effect and 100 is complete control) (wheat (winter wheat); 125 g ai/ha) | Plant response rating (scale of 0 to 100 where 0 is no effect and 100 is complete control) (nutsedge, yellow; 31 g ai/ha) | Plant response rating (scale of 0 to 100 where 0 is no effect and 100 is complete control) (nutsedge, yellow; 62 g ai/ha) | Plant response rating (scale of 0 to 100 where 0 is no effect and 100 is complete control) (nutsedge, yellow; 125 g ai/ha) | Plant response rating (scale of 0 to 100 where 0 is no effect and 100 is complete control) (oat, wild; 31 g ai/ha) | Plant response rating (scale of 0 to 100 where 0 is no effect and 100 is complete control) (oat, wild; 62 g ai/ha) | Plant response rating (scale of 0 to 100 where 0 is no effect and 100 is complete control) (oat, wild; 125 g ai/ha) | Plant response rating, Rice, Flood (rice) | Plant response rating, Sedge, Umbrella, Flood (sedge, umbrella) | Plant response rating (scale of 0 to 100 where 0 is no effect and 100 is complete control) (chickweed; 31 g ai/ha) | also measured
FC(F)(F)COc1nc(-c2ccccc2)nn1Cc1ccnc(C(F)(F)F)c1 [Compound 24] | 98 | 98 | 90 | 30 | 55 | 40 | 55 | 30 | 5 | 5 | 5 | 15 | 25 | 20 | 15 | 30 | 20 | 0 | 85 | 55 | Plant response rating (scale of 0 to 100 where 0 is no effect and 100 is complete control) (morningglory; 250 g ai/ha): 95; Plant response rating (scale of 0 to 100 where 0 is no effect and 100 is complete control) (soybean; 250 g ai/ha): 40; Plant response rating, Barnyardgrass (barnyardgrass; 500 g ai/ha): 70; Plant response rating (scale of 0 to 100 where 0 is no effect and 100 is complete control) (wheat (winter wheat); 250 g ai/ha): 5; Plant response rating (scale of 0 to 100 where 0 is no effect and 100 is complete control) (nutsedge, yellow; 250 g ai/ha): 25; Plant response rating (scale of 0 to 100 where 0 is no effect and 100 is complete control) (oat, wild; 250 g ai/ha): 35; Plant response rating (scale of 0 to 100 where 0 is no effect and 100 is complete control) (chickweed; 62 g ai/ha): 80; Plant response rating (scale of 0 to 100 where 0 is no effect and 100 is complete control) (chickweed; 125 g ai/ha): 65; Plant response rating (scale of 0 to 100 where 0 is no effect and 100 is complete control) (chickweed; 250 g ai/ha): 85; Plant response rating, Corn (corn; 125 g ai/ha): 20; Plant response rating, Corn (corn; 500 g ai/ha): 40; Plant response rating (scale of 0 to 100 where 0 is no effect and 100 is complete control) (ryegrass, Italian; 31 g ai/ha): 5; Plant response rating (scale of 0 to 100 where 0 is no effect and 100 is complete control) (ryegrass, Italian; 62 g ai/ha): 5; Plant response rating (scale of 0 to 100 where 0 is no effect and 100 is complete control) (ryegrass, Italian; 125 g ai/ha): 20; Plant response rating (scale of 0 to 100 where 0 is no effect and 100 is complete control) (ryegrass, Italian; 250 g ai/ha): 25; Plant response rating, Pigweed (pigweed; 125 g ai/ha): 100; Plant response rating, Pigweed (pigweed; 500 g ai/ha, approx. 10 d): 100; Plant response rating, Foxtail, Giant (foxtail, giant; 125 g ai/ha): 100; Plant response rating, Foxtail, Giant (foxtail, giant; 500 g ai/ha, approx. 10 d): 100
COc1nc(-c2ccc(C(F)(F)F)cc2)nn1Cc1ccnc(C(F)(F)F)c1 [Compound 25] | 90 | 85 | 75 | 20 | 45 | 70 | 50 | 60 | 5 | 5 | 5 | 20 | 20 | 25 | 10 | 20 | 25 | 25 | 95 | 50 | Plant response rating (scale of 0 to 100 where 0 is no effect and 100 is complete control) (morningglory; 250 g ai/ha): 95; Plant response rating (scale of 0 to 100 where 0 is no effect and 100 is complete control) (soybean; 250 g ai/ha): 65; Plant response rating, Barnyardgrass (barnyardgrass; 31 g ai/ha): 20; Plant response rating (scale of 0 to 100 where 0 is no effect and 100 is complete control) (wheat (winter wheat); 250 g ai/ha): 10; Plant response rating (scale of 0 to 100 where 0 is no effect and 100 is complete control) (nutsedge, yellow; 250 g ai/ha): 25; Plant response rating (scale of 0 to 100 where 0 is no effect and 100 is complete control) (oat, wild; 250 g ai/ha): 35; Plant response rating (scale of 0 to 100 where 0 is no effect and 100 is complete control) (chickweed; 62 g ai/ha): 90; Plant response rating (scale of 0 to 100 where 0 is no effect and 100 is complete control) (chickweed; 125 g ai/ha): 85; Plant response rating (scale of 0 to 100 where 0 is no effect and 100 is complete control) (chickweed; 250 g ai/ha): 100; Plant response rating, Corn (corn; 31 g ai/ha): 10; Plant response rating, Corn (corn; 125 g ai/ha): 30; Plant response rating (scale of 0 to 100 where 0 is no effect and 100 is complete control) (ryegrass, Italian; 31 g ai/ha): 5; Plant response rating (scale of 0 to 100 where 0 is no effect and 100 is complete control) (ryegrass, Italian; 62 g ai/ha): 5; Plant response rating (scale of 0 to 100 where 0 is no effect and 100 is complete control) (ryegrass, Italian; 125 g ai/ha): 10; Plant response rating (scale of 0 to 100 where 0 is no effect and 100 is complete control) (ryegrass, Italian; 250 g ai/ha): 30; Plant response rating, Pigweed (pigweed; 31 g ai/ha): 90; Plant response rating, Pigweed (pigweed; 125 g ai/ha): 100; Plant response rating, Foxtail, Giant (foxtail, giant; 31 g ai/ha): 70; Plant response rating, Foxtail, Giant (foxtail, giant; 125 g ai/ha): 100
CCOc1nc(-c2ccc(Cl)cc2)nn1Cc1ccnc(C(F)(F)F)c1 [Compound 26] | 90 | 75 | 85 | 70 | 70 | 65 | 70 | 70 | 10 | 10 | 10 | 25 | 30 | 20 | 35 | 40 | 45 | 45 | 90 | 95 | Plant response rating (scale of 0 to 100 where 0 is no effect and 100 is complete control) (morningglory; 16 g ai/ha): 90; Plant response rating (scale of 0 to 100 where 0 is no effect and 100 is complete control) (soybean; 16 g ai/ha): 35; Plant response rating, Barnyardgrass (barnyardgrass; 31 g ai/ha): 40; Plant response rating (scale of 0 to 100 where 0 is no effect and 100 is complete control) (wheat (winter wheat); 16 g ai/ha): 5; Plant response rating (scale of 0 to 100 where 0 is no effect and 100 is complete control) (nutsedge, yellow; 16 g ai/ha): 15; Plant response rating (scale of 0 to 100 where 0 is no effect and 100 is complete control) (oat, wild; 16 g ai/ha): 35; Plant response rating (scale of 0 to 100 where 0 is no effect and 100 is complete control) (chickweed; 16 g ai/ha): 90; Plant response rating (scale of 0 to 100 where 0 is no effect and 100 is complete control) (chickweed; 62 g ai/ha): 95; Plant response rating (scale of 0 to 100 where 0 is no effect and 100 is complete control) (chickweed; 125 g ai/ha): 95; Plant response rating, Corn (corn; 31 g ai/ha): 30; Plant response rating, Corn (corn; 125 g ai/ha): 40; Plant response rating (scale of 0 to 100 where 0 is no effect and 100 is complete control) (ryegrass, Italian; 16 g ai/ha): 20; Plant response rating (scale of 0 to 100 where 0 is no effect and 100 is complete control) (ryegrass, Italian; 31 g ai/ha): 35; Plant response rating (scale of 0 to 100 where 0 is no effect and 100 is complete control) (ryegrass, Italian; 62 g ai/ha): 35; Plant response rating (scale of 0 to 100 where 0 is no effect and 100 is complete control) (ryegrass, Italian; 125 g ai/ha): 40; Plant response rating, Pigweed (pigweed; 31 g ai/ha): 90; Plant response rating, Pigweed (pigweed; 125 g ai/ha): 100; Plant response rating, Foxtail, Giant (foxtail, giant; 31 g ai/ha): 100; Plant response rating, Foxtail, Giant (foxtail, giant; 125 g ai/ha): 100
